{
  "source": "patent US12161722B2",
  "about": "“Bifunctional heterocyclic compound having BTK degradation function via ubiquitin proteasome pathway, and use thereof” (KOREA RESEARCH INSTITUTE OF CHEMICAL TECHNOLOGY, priority 2021, dated 2024)",
  "data": [
    {"target": "T1, WT BTK protein (Homo sapiens, UniProt Q06187)", "T1 construct": "measured for intracellular BTK protein levels by Western blotting; endogenous in cells; host or cells: TMD-8 or RAMOS cells", "T1 sequence (Q06187 whole entry)": "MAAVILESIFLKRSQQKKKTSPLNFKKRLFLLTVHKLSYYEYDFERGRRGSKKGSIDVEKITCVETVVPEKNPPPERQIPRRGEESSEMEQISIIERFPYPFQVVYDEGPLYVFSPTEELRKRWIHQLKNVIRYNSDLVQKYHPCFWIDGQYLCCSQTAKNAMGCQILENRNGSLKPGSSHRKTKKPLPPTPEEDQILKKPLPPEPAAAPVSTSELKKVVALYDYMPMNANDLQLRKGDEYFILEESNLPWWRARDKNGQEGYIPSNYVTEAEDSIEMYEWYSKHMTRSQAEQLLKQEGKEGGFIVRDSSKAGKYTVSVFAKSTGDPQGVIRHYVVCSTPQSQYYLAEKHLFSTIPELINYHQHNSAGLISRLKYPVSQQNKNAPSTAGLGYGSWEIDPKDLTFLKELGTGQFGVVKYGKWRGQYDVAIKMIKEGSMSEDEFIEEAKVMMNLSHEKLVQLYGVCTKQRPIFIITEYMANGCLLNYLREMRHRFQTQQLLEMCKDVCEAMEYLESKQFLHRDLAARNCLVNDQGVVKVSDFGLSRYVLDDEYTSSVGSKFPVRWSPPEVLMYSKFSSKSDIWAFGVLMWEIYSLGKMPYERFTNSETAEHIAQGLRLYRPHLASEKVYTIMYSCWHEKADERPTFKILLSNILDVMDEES", "assay": "BTK protein degradation assay (Western blotting), WT BTK", "type": "cell-based", "conditions": "concentration range accounting for 50% degradation of WT BTK protein, TMD-8 or RAMOS cells, 24 hours", "method_in_brief": "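BTK levels were read by Western blotting (GAPDH and β-actin normalisers) in RIPA lysates of TMD-8 cells exposed to compounds for 24 h at 1×10^6 cells/mL. Results scored in ranges of the concentration producing 50% loss of WT BTK.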", "units": {"DC50": "nM"}, "values": [
      {"molecule": "Cc1cccc(C)c1Nc1nn(C)c2nc(Nc3ccc(C4CCN(CC5CCN(c6ccc7c(c6)C(=O)N(C6CCC(=O)NC6=O)C7=O)CC5)CC4)cc3F)ncc12", "note": "(stereo not shown) [Compound 231, 5-(4-((4-(4-((3-((2,6-Dimethylphenyl)amino)-1-methyl-1H-pyrazolo[3,4-d]pyrimidin-6-yl)amino)-3-fluorophenyl)piperidin-1-yl)methyl)piperidin-1-yl)-2-(2,6-dioxopiperidin-3-yl)isoindoline-1,3-dione]", "DC50": "10 to 1000"},
      {"molecule": "Cc1cccc(C)c1Nc1nn(C)c2nc(Nc3ccc4c(c3)CN(CC3CCN(c5ccc6c(c5)CN(C5CCC(=O)NC5=O)C6=O)CC3)CC4)ncc12", "note": "(stereo not shown) [Compound 237, 3-(5-(4-((7-((3-((2,6-Dimethylphenyl)amino)-1-methyl-1H-pyrazolo[3,4-d]pyrimidin-6-yl)amino)-3,4-dihydroisoquinolin-2 (1H)-yl)methyl)piperidin-1-yl)-1-oxoisoindolin-2-yl)piperidin-2,6-one]", "DC50": "0.1 to 10"},
      {"molecule": "Cc1cccc(C)c1Nc1nn(C)c2nc(Nc3ccc4c(c3)CCN(CC3CCN(c5ccc6c(c5)C(=O)N(C5CCC(=O)NC5=O)C6=O)CC3)C4)ncc12", "note": "(stereo not shown) [Compound 172, 5-(4-((6-((3-((2,6-Dimethylphenyl)amino)-1-methyl-1H-pyrazolo[3,4-d]pyrimidin-6-yl)amino)-3,4-dihydroisoquinolin-2 (1H)-yl)methyl)piperidin-1-yl)-2-(2,6-dioxopiperidin-3-yl)isoindoline-1,3-dione]", "DC50": "0.1 to 10"},
      {"molecule": "Cc1cccc(C)c1Nc1nn(C)c2nc(Nc3ccc(C4CCN(C(=O)CN5CCN(c6ccc7c(c6)C(=O)N(C6CCC(=O)NC6=O)C7=O)CC5)CC4)cc3)ncc12", "note": "(stereo not shown) [Compound 225, 5-(4-(2-(4-(4-((3-((2,6-dimethylphenyl)amino)-1-methyl-1H-pyrazolo[3,4-d]pyrimidin-6-yl)amino)phenyl)piperidin-1-yl)-2-oxoethyl)piperazin-1-yl)-2-(2,6-dioxopiperidin-3-yl)isoindoline-1,3-dione]", "DC50": "0.1 to 10"},
      {"molecule": "Cc1cccc(C)c1Nc1nn(C)c2nc(Nc3cccc(CNCC4CCN(C(=O)C5CCN(c6ccc7c(c6)C(=O)N(C6CCC(=O)NC6=O)C7=O)CC5)CC4)c3)ncc12", "note": "(stereo not shown) [Compound 42, 5-(4-(4-(((3-((3-((2,6-Dimethylphenyl)amino)-1-methyl-1H-pyrazolo[3,4-d]pyrimidin-6-yl)amino)benzyl)amino)methyl)piperidine-1-carbonyl)piperidin-1-yl)-2-(2,6-dioxopiperidin-3-yl)isoindoline-1,3-dione]", "DC50": "0.1 to 10"},
      {"molecule": "Cc1cccc(C)c1Nc1nn(C)c2nc(Nc3ccc(N4CCN(CC5CN(c6ccc7c(c6)C(=O)N(C6CCC(=O)NC6=O)C7=O)C5)[C@@H](C)C4)cc3)ncc12", "note": "(stereo partly drawn) [Compound 185, 5-(3-(((S)-4-(4-((3-((2,6-Dimethylphenyl)amino)-1-methyl-1H-pyrazolo[3,4-d]pyrimidin-6-yl)amino)phenyl)-2-methylpiperazin-1-yl)methyl)azetidin-1-yl)-2-(2,6-dioxopiperidin-3-yl)isoindoline-1,3-dione]", "DC50": "0.1 to 10"},
      {"molecule": "Cc1cccc(C)c1Nc1nn(C)c2nc(Nc3ccc4c(c3)CN(C(=O)CNc3ccc5c(c3)C(=O)N(C3CCC(=O)NC3=O)C5=O)CC4)ncc12", "note": "(stereo not shown) [Compound 72, 5-((2-(7-((3-((2,6-Dimethylphenyl)amino)-1-methyl-1H-pyrazolo[3,4-d]pyrimidin-6-yl)amino)-3,4-dihydroisoquinolin-2 (1H)-yl)-2-oxoethyl)amino)-2-(2,6-dioxopiperidin-3-yl)isoindoline-1,3-dione]", "DC50": "10 to 1000"},
      {"molecule": "Cc1cccc(C)c1Nc1nn(C)c2nc(Nc3ccc4c(c3)CN(C3CN(C[C@@H]5[C@H]6CN(c7ccc8c(c7)C(=O)N(C7CCC(=O)NC7=O)C8=O)C[C@@H]56)C3)CC4)ncc12", "note": "(stereo partly drawn) [Compound 153, 5-((1R,5S,6S)-6-((3-(7-((3-((2,6-Dimethylphenyl)amino)-1-methyl-1H-pyrazolo[3,4-d]pyrimidin-6-yl)amino)-3,4-dihydroisoquinolin-2 (1H)-yl)azetidin-1-yl)methyl)-3-azabicyclo[3.1.0]hexan-3-yl)-2-(2,6-dioxopiperidin-3-yl)isoindoline-1,3-dione]", "DC50": "0.1 to 10"},
      {"molecule": "Cc1cccc(C)c1Nc1nn(C)c2nc(Nc3ccc4c(c3)CN(CC3(O)CCN(c5ccc6c(c5)C(=O)N(C5CCC(=O)NC5=O)C6=O)CC3)CC4)ncc12", "note": "(stereo not shown) [Compound 130, 5-(4-((7-((3-((2,6-dimethylphenyl)amino)-1-methyl-1H-pyrazolo[3,4-d]pyrimidin-6-yl)amino)-3,4-dihydroisoquinolin-2 (1H)-yl)methyl)-4-hydroxypiperidin-1-yl)-2-(2,6-dioxopiperidin-3-yl)isoindoline-1,3-dione]", "DC50": "0.1 to 10"},
      {"molecule": "Cc1cccc(C)c1Nc1nn(C)c2nc(Nc3ccc4c(c3)CN(CC3CCN(C(=O)CNc5ccc6c(c5)C(=O)N(C5CCC(=O)NC5=O)C6=O)CC3)CC4)ncc12", "note": "(stereo not shown) [Compound 36, 5-((2-(4-((7-((3-((2,6-Dimethylphenyl)amino)-1-methyl-1H-pyrazolo[3,4-d]pyrimidin-6-yl)amino)-3,4-dihydroisoquinolin-2 (1H)-yl)methyl)piperidin-1-yl)-2-oxoethyl)amino)-2-(2,6-dioxopiperidin-3-yl)isoindoline-1,3-dione]", "DC50": "0.1 to 10"},
      {"molecule": "Cc1cccc(C)c1Nc1nn(C)c2nc(Nc3ccc4c(c3)CN(C(=O)C3CCN(C(=O)COc5ccc6c(c5)C(=O)N(C5CCC(=O)NC5=O)C6=O)CC3)CC4)ncc12", "note": "(stereo not shown) [Compound 43, 5-(2-(4-(7-((3-((2,6-Dimethylphenyl)amino)-1-methyl-1H-pyrazolo[3,4-d]pyrimidin-6-yl)amino)-1,2,3,4-tetrahydroisoquinoline-2-carbonyl)piperidin-1-yl)-2-oxoethoxy)-2-(2,6-dioxopiperidin-3-yl)isoindoline-1,3-dione]", "DC50": "0.1 to 10"},
      {"molecule": "Cc1cccc(C)c1Nc1nn(C)c2nc(Nc3ccc(N4CCN(C[C@H]5CCN(c6ccc7c(c6)C(=O)N(C6CCC(=O)NC6=O)C7=O)C5)CC4)nc3)ncc12", "note": "(stereo partly drawn) [Compound 154, 5-((R)-3-((4-(5-((3-((2,6-Dimethylphenyl)amino)-1-methyl-1H-pyrazolo[3,4-d]pyrimidin-6-yl)amino)pyridin-2-yl)piperazin-1-yl)methyl)pyrrolidin-1-yl)-2-(2,6-dioxopiperidin-3-yl)isoindoline-1,3-dione]", "DC50": "0.1 to 10"},
      {"molecule": "Cc1cccc(C)c1Nc1nn(C)c2nc(Nc3ccc4c(c3)CN(CC3CN(C(=O)C5CCN(c6ccc7c(c6)C(=O)N(C6CCC(=O)NC6=O)C7=O)CC5)C3)CC4)ncc12", "note": "(stereo not shown) [Compound 40, 5-(4-(3-((7-((3-((2,6-Dimethylphenyl)amino)-1-methyl-1H-pyrazolo[3,4-d]pyrimidin-6-yl)amino)-3,4-dihydroisoquinolin-2 (1H)-yl)methyl)azetidine-1-carbonyl)piperidin-1-yl)-2-(2,6-dioxopiperidin-3-yl)isoindoline-1,3-dione]", "DC50": "0.1 to 10"},
      {"molecule": "COc1ccc(Nc2nn(C)c3nc(Nc4ccc5c(c4)CN(CC4CCN(c6ccc7c(c6)C(=O)N(C6CCC(=O)NC6=O)C7=O)CC4)CC5)ncc23)c(C)c1", "note": "(stereo not shown) [Compound 118, 2-(2,6-Dioxopiperidin-3-yl)-5-(4-((7-((3-((4-methoxy-2-methylphenyl)amino)-1-methyl-1H-pyrazolo[3,4-d]pyrimidin-6-yl)amino)-3,4-dihydroisoquinolin-2 (1H)-yl)methyl)piperidin-1-yl)isoindoline-1,3-dione]", "DC50": "1000 to 10000"},
      {"molecule": "Cc1cccc(C)c1Nc1nn(C)c2nc(Nc3ccc4c(c3)CN(C(=O)C3(F)CCN(c5cc6c(cc5F)C(=O)N(C5CCC(=O)NC5=O)C6=O)CC3)CC4)ncc12", "note": "(stereo not shown) [Compound 244, 5-(4-(7-((3-((2,6-dimethylphenyl)amino)-1-methyl-1H-pyrazolo[3,4-d]pyrimidin-6-yl)amino)-1,2,3,4-tetrahydroisoquinoline-2-carbonyl)-4-fluoropiperidin-1-yl)-2-(2,6-dioxopiperidin-3-yl)-6-fluoroisoindoline-1,3-dione]", "DC50": "0.1 to 10"},
      {"molecule": "Cc1cccc(C)c1Nc1nn(C)c2nc(Nc3ccc(N4CCN(c5cc6c(cc5F)C(=O)N(C5CCC(=O)NC5=O)C6=O)CC4)cc3)ncc12", "note": "(stereo not shown) [Compound 239, 5-(4-(4-((3-((2,6-Dimethylphenyl)amino)-1-methyl-1H-pyrazolo[3,4-d]pyrimidin-6-yl)amino)phenyl)piperazin-1-yl)-2-(2,6-dioxopiperidin-3-yl)-6-fluoroisoindoline-1,3-dione]", "DC50": "10 to 1000"},
      {"molecule": "Cc1cccc(C)c1Nc1nn(C)c2nc(Nc3ccc4c(c3)CN(CC3CCN(C(=O)CNc5cc6c(cc5F)C(=O)N(C5CCC(=O)NC5=O)C6=O)CC3)CC4)ncc12", "note": "(stereo not shown) [Compound 211, 5-((2-(4-((7-((3-((2,6-Dimethylphenyl)amino)-1-methyl-1H-pyrazolo[3,4-d]pyrimidin-6-yl)amino)-3,4-dihydroisoquinolin-2 (1H)-yl)methyl)piperidin-1-yl)-2-oxoethyl)amino)-2-(2,6-dioxopiperidin-3-yl)-6-fluoroisoindoline-1,3-dione]", "DC50": "0.1 to 10"},
      {"molecule": "Cc1cccc(C)c1Nc1nn(C)c2nc(Nc3ccc(C4CN(C[C@@H]5CCN(c6ccc7c(c6)C(=O)N(C6CCC(=O)NC6=O)C7=O)C5)C4)cc3)ncc12", "note": "(stereo partly drawn) [Compound 177, 5-((S)-3-((3-(4-((3-((2,6-Dimethylphenyl)amino)-1-methyl-1H-pyrazolo[3,4-d]pyrimidin-6-yl)amino)phenyl)azetidin-1-yl)methyl)pyrrolidin-1-yl)-2-(2,6-dioxopiperidin-3-yl)isoindoline-1,3-dione]", "DC50": "0.1 to 10"},
      {"molecule": "Cc1cccc(C)c1Nc1nn(C)c2nc(Nc3ccc4c(c3)CN(C(=S)C3CCN(c5cc6c(cc5F)C(=O)N(C5CCC(=O)NC5=O)C6=O)CC3)CC4)ncc12", "note": "(stereo not shown) [Compound 233, 5-(4-(7-((3-((2,6-dimethylphenyl)amino)-1-methyl-1H-pyrazolo[3,4-d]pyrimidin-6-yl)amino)-1,2,3,4-tetrahydroisoquinoline-2-carbonothioyl)piperidin-1-yl)-2-(2,6-dioxopiperidin-3-yl)-6-fluoroisoindoline-1,3-dione]", "DC50": "0.1 to 10"}
    ]}
  ]
}
